Measurements: ChEMBL document CHEMBL1201862, “PubChem BioAssay data set” (2004)
Activity calls are given as the source filed them.

Key:
[1] = viability loss in THP-1 monocytes – THP-1 cells, cytotoxicity control for Vif-APOBEC3G degradation inhibitor project, dose response (AID 1117359); type: functional; conditions: THP-1
[2] = biological target: Glutathione-S-transferase (Schistosoma japonicum, UniProt Q26513); test: GST-antibody interaction or FRET quenching – biochemical, TR-FRET, artefact control for Vif-APOBEC3G degradation inhibitor project, dose response (AID 1117362); type: functional
[3] = biological target: NAD-dependent protein deacylase sirtuin-5, mitochondrial (Homo sapiens, UniProt Q9NXA8); test: sirtuin-5 deacylation blockers, concentration series – biochemical, fluorescence imaging, cherry-pick, set 5, dose response (AID 720591);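 note: desuccinylation of succinyl peptide AMC substrate read as fluorescence after trypsin release; potency of inhibitors that lower fluorescence and may act on trypsin instead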
[4] = biological target: T1, Heat shock factor protein 1 (Mus musculus, UniProt P38532); test: enhancement of HSF1-driven luciferase signal – cell-based, NIH3T3, luminescence, dose retest, confirmation (AID 435004); type: functional;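 note: stress induced by proteasome inhibitor MG132 added 30 min after compound; luciferase reporter driven by HSF1 response element in NIH3T3 cells; actives raise luminescence as potentiators of the MG132 stress response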
T1 sequence (P38532 whole entry): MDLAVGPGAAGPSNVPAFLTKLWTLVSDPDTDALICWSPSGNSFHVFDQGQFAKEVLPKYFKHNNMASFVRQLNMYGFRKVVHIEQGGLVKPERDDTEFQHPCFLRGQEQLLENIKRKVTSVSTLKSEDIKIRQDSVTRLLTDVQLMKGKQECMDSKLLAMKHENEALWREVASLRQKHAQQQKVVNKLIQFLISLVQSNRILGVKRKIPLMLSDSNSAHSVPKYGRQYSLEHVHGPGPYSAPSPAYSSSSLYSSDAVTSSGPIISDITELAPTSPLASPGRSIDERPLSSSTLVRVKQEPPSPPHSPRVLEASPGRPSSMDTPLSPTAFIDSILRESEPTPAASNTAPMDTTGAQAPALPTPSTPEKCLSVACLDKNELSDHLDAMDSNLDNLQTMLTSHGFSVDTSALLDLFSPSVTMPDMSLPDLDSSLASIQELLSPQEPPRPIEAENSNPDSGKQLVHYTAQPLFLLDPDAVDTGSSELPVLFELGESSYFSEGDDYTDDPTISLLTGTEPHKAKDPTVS

[5] = viability loss in HepG2 liver cells – cell-based, ATP luminescence, cherry-pick, set 6, cytotoxicity control, dose response (AID 1053125); type: functional
cells [6] = conditions: A549
cells [7] = test: cells
[8] = biological target: T2, Methionyl-tRNA synthetase, putative (Trypanosoma brucei brucei, UniProt Q38C91); type: functional, Trypanosoma brucei brucei strain 927/4 GUTat10.1
T2 sequence (Q38C91 whole entry): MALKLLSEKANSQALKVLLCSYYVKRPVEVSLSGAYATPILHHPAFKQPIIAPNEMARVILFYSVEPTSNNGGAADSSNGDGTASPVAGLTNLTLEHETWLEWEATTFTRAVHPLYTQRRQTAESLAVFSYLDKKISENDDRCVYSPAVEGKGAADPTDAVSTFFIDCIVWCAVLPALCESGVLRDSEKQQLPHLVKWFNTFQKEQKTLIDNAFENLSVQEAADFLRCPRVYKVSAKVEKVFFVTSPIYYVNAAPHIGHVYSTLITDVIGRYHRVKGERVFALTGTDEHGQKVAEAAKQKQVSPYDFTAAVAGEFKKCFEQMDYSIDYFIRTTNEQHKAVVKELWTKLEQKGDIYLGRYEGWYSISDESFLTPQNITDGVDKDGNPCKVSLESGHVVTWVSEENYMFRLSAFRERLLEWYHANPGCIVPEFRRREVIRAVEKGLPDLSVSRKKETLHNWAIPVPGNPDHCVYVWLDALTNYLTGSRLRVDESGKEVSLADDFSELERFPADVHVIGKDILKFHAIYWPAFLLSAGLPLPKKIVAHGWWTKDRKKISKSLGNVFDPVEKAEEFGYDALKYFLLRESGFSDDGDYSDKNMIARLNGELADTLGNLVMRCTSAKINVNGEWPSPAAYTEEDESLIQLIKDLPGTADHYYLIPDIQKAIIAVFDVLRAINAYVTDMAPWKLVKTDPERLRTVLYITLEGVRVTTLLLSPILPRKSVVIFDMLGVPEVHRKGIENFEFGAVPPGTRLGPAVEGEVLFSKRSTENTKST

[9] = Counterscreen for inhibitors of Trypanosoma brucei methionyl tRNA synthetase (MetRS): Luminescence-based cell-based high throughput dose response assay to identify compounds that are cytotoxic to Jurkat human T lymphocyte cells.; type: functional
[10] = biological target: T2, Methionyl-tRNA synthetase, putative; type: functional, Trypanosoma brucei brucei strain 927/4 GUTat10.1; remark: listed apart in the source
cells [11] = conditions: HEK293
[12] = luciferase reporter signal suppression in cells – H4 neuroglioma cells, luminescence, dose response (AID 1990); type: functional, cell-based
[13] = Luminescence Cell-Based Dose Response HTS to Identify Inhibitors of 5'UTR Stem-Loop Driven Prion Protein mRNA Translation in H4 Neuroglioblastoma Cells. [Related pubchem assays: 1827 (Project Summary), 1813 (Primary HTS)]; type: functional
[14] = alpha-synuclein stem-loop luciferase translation blockers – H4 neuroglioma cells, luminescence, confirmation (AID 1988); type: functional, cell-based
[15] = biological target: T3, Mannose-6-phosphate isomerase (Homo sapiens, UniProt P34949); test: MPI enzyme activity inhibition – biochemical, fluorescence intensity, coupled assay, primary screen (AID 1209)
T3 sequence (P34949 whole entry): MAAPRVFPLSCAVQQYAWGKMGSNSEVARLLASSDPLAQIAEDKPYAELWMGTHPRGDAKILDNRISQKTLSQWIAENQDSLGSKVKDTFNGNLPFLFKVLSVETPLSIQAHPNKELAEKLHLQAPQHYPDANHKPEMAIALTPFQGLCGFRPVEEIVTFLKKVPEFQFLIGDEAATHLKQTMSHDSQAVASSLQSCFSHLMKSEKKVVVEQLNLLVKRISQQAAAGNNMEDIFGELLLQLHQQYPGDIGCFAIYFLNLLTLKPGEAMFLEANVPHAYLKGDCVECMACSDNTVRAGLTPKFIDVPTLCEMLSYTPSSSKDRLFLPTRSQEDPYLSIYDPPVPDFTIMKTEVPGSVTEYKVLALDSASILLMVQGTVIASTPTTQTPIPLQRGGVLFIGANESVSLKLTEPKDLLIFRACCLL

Genome polyprotein = Genome polyprotein (dengue virus type 2, UniProt P29990); test: flavivirus cap methylation enzyme inhibition – biochemical, confirmation dose response, primary screen (AID 588689); type: functional
[16] = toxicity toward HepG2 hepatoma cells – cell-based, dry powder samples, cytotoxicity control, dose response (AID 720568); type: functional
[17] = miR-122 quantity in Huh7 after inhibitor exposure – cell-based, RT-qPCR, dry powder, orthogonal assay for miR-122 inhibitor project, dose response (AID 687041); type: functional
HEK293 = test: EBV LMP1 TES2 canonical NF-kB signalling blockers – cell-based, HEK293, luciferase, cherry-pick, dose response (AID 588343); type: functional; conditions: Homo sapiens
cells [18] = type: functional, cell-based
[19] = biological target: T4, Nuclear receptor subfamily 0 group B member 1 (Homo sapiens, UniProt P51843); type: functional, cell-based;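 note: HEK293T cells transfected with SF-1 and DAX-1 plus StAR promoter luciferase reporter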
T4 sequence (P51843 whole entry): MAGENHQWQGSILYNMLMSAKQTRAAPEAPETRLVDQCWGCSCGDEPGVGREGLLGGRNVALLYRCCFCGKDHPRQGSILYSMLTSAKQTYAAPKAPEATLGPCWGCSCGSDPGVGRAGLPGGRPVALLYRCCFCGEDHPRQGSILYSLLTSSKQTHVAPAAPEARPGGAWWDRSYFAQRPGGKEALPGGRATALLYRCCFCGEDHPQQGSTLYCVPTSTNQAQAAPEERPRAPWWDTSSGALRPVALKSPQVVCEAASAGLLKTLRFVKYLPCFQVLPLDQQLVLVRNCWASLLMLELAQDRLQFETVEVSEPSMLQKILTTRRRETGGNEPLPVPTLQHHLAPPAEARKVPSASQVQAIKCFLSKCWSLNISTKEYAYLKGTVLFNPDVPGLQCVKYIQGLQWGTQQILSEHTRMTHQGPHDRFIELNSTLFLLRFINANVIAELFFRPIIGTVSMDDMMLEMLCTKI

[20] = HeLa cell viability loss – plate reader, dry powder, cytotoxicity control, dose response (AID 651946); type: functional, cell-based
HeLa = test: viability loss in HeLa cells – cell-based, ATP luminescence, cherry-pick samples, cytotoxicity control, dose response (AID 687004); type: functional; conditions: Homo sapiens
[21] = viability loss in MITF-independent A375 cells – cell-based, CellTiter-Glo luminescence, dry powder, set 7, counter-screen for MITF inhibitor project, dose response (AID 624490); type: functional; conditions: A-375
[22] = cytotoxicity in melanoma parental cells – cell-based, CellTiter-Glo, dry powder, set 6, MITF inhibitor project, dose response (AID 624429); type: functional; conditions: SK-MEL-5
[23] = MITF Orthogonal Assay: SK-MEL-5 CTG Assay Measured in Cell-Based System Using Plate Reader - 2084-02_Inhibitor_Dose_DryPowder_Activity_Set5.; type: functional
[24] = MITF Measured in Cell-Based System Using Plate Reader - 2084-01_Inhibitor_Dose_DryPowder_Activity_Set6.; type: functional
[25] = MITF Measured in Cell-Based System Using Plate Reader - 2084-01_Inhibitor_Dose_DryPowder_Activity_Set7.; type: functional
[26] = A Cell-Based Confirmatory Screen for Compounds that Inhibit VEEV, TC-83 (8).; type: functional
[27] = A Cell-Based Confirmatory Screen for Compounds that Inhibit VEEV, TC-83 (7).; type: functional
[28] = ATP-based viability loss in HeLa cells – cell-based, CellTiter-Glo luminescence, dry powder, set 2, cytotoxicity control, dose response (AID 720593); type: functional
[29] = biological target: Endoplasmic reticulum aminopeptidase 1 (Homo sapiens, UniProt Q9NZ08); test: inhibition of human ERAP1 enzyme activity – biochemical, cherry-pick, set 2, plate reader, dose response (AID 743314)
[30] = biological target: Metabotropic glutamate receptor 5 (Rattus norvegicus, UniProt P31424); test: Identification of a glycine sulfonamide based non-MPEP site positive allosteric potentiator (PAM) of mGlu5 (calcium_assay).; type: functional
[31] = T. cruzi growth inhibition in host cells, dose response, cell-based, plate reader, dry powder, set 2 (AID 652275); type: functional
[32] = Late stage assay provider results from the probe development effort to identify inhibitors of the Plasmodium falciparum M17 Leucine Aminopeptidase (M17LAP): radiolabel-based cell-based dose response assay to identify compounds that inhibit P. falciparum growth in RBCs Set 2.; type: functional

Genome polyprotein, sequence (P29990 2492-3391 limits assumed): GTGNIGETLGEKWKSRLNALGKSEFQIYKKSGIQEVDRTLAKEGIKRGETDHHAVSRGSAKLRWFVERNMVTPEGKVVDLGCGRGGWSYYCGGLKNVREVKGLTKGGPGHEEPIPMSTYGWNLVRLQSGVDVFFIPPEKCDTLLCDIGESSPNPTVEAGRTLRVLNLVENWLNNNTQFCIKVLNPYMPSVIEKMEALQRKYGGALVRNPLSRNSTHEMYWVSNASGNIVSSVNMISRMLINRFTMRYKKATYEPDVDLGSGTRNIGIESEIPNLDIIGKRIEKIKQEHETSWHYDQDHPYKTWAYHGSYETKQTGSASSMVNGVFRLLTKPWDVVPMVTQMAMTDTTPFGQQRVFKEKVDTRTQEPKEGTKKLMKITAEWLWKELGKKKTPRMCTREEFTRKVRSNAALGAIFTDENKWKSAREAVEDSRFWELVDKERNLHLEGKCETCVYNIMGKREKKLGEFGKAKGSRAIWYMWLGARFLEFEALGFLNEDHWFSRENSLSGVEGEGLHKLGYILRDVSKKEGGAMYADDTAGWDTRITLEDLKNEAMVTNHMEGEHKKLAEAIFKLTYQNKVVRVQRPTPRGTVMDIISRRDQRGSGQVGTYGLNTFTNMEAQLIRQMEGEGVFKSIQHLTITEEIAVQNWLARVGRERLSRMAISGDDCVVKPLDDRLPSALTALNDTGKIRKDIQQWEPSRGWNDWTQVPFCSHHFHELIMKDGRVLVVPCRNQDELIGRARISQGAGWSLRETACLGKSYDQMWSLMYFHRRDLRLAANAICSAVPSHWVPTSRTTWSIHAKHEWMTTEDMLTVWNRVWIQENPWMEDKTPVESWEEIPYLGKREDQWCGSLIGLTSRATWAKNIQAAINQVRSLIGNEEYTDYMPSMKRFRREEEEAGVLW
Metabotropic glutamate receptor 5, sequence (P31424 whole entry): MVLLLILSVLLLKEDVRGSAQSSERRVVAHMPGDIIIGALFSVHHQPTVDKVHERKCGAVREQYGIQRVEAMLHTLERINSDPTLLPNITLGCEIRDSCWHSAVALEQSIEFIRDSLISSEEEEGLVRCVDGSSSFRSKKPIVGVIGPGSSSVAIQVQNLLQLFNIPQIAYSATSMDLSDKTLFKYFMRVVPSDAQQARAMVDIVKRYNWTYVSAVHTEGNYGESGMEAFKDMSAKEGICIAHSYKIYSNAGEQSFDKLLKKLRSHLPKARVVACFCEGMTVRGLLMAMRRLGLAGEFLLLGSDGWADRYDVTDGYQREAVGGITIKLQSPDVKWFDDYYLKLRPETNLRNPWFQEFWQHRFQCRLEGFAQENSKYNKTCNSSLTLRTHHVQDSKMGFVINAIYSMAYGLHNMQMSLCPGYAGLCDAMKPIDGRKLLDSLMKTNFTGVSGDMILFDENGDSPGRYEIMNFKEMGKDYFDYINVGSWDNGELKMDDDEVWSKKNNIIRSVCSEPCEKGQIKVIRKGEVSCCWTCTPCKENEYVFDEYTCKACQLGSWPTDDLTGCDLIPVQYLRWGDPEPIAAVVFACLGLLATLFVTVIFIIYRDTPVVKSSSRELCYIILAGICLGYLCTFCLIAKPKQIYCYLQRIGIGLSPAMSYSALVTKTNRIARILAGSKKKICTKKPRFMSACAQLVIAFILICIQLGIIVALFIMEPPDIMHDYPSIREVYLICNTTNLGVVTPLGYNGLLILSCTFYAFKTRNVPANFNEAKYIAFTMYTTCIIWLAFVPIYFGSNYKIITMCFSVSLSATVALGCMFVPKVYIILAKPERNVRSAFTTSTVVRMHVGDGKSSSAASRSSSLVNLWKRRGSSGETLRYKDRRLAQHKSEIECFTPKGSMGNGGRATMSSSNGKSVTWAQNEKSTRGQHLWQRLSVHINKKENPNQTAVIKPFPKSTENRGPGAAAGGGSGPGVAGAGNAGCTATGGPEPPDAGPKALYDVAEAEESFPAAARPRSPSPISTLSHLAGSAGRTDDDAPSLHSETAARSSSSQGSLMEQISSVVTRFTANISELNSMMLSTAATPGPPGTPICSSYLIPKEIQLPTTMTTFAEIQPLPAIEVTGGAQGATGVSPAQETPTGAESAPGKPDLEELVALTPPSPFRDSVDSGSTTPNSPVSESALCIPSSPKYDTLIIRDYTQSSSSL
Glutathione-S-transferase, sequence (Q26513 whole entry): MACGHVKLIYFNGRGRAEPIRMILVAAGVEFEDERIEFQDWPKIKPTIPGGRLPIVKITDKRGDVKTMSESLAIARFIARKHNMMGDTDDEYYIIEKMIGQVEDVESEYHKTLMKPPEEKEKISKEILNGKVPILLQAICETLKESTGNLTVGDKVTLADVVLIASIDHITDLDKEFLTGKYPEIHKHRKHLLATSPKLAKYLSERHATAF
Endoplasmic reticulum aminopeptidase 1, sequence (Q9NZ08 whole entry): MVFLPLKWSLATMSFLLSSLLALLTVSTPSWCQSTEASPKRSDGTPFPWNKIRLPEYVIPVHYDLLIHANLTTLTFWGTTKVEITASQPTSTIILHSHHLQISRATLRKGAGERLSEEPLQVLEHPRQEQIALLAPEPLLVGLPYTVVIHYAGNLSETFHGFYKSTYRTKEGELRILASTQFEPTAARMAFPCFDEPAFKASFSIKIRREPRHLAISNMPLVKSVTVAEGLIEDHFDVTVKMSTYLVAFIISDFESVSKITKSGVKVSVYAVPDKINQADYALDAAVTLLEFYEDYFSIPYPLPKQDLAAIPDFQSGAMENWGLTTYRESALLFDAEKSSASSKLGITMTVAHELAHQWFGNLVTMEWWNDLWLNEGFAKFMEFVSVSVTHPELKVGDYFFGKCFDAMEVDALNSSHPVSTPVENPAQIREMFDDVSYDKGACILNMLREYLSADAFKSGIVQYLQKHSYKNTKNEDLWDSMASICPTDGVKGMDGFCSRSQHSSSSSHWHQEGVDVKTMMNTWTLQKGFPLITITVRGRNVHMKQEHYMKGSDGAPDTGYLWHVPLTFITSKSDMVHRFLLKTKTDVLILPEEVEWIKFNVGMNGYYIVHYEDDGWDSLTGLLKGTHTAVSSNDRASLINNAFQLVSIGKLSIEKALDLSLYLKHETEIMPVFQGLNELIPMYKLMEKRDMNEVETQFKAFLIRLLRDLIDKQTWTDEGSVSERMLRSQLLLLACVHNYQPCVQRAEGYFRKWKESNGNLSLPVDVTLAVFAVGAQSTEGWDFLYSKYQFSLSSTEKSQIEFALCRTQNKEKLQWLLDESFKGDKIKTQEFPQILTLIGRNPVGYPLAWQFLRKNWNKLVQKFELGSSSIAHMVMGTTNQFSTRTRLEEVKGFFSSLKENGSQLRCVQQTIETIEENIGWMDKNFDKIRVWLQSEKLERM
NAD-dependent protein deacylase sirtuin-5, mitochondrial, sequence (Q9NXA8 whole entry): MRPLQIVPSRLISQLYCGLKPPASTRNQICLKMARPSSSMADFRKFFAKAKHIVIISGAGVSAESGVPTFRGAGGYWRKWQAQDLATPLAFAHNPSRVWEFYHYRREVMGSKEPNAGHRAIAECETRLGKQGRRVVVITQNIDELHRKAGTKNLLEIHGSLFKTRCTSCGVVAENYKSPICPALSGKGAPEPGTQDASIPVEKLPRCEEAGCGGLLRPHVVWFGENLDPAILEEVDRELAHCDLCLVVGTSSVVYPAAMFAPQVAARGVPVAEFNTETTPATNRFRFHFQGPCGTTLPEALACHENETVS

## COc1ccc2c(c1)O[C@@H](c1ccc3c(c1)OCO3)[C@H](OC(=O)Nc1cc(OC)c(OC)c(OC)c1)C2=O
[1]
  CC50: 6.65 µM (active)
[2]
  IC50: > 100 µM (active)

## CCC(C)(C)NC(=O)C(c1ccc(F)cc1)N(Cc1ccco1)C(=O)CCC(=O)Nc1ccccn1 (configuration not stated)
[3]
  AC50: > 30 µM (inactive)

## COc1ccc(C2C3=C(CCCC3=O)N(CC(=O)O)C3=C2C(=O)CCC3)cc1Cl
[4]
  EC50: > 260 µM (inactive)
[5]
  AC50: > 52 µM (inactive)
Cells [6]
  AC50: > 52 µM (inactive)
Cells [7]
  AC50: 2.66 µM (active)

## COC(=O)c1sc(-c2ccc(Cl)cc2)cc1NC(=O)COCC(=O)O
[8]
  IC50: 18.7 µM (inactive)
[9]
  IC50: 83.2 µM (inactive)
[10]
  IC50: 13.8 µM (inactive)

## N#CC1=C(N)Oc2cc(N)ccc2C1c1ccc(F)cc1F (configuration not stated)
[5]
  AC50: 45.3 µM (active)
Cells [6]
  AC50: 31.8 µM (active)
Cells [11]
  AC50: > 52 µM (inactive)

## O=C1CCNc2cc3ccccc3cc21
[12]
  EC50: > 60 µM (not active)
[13]
  EC50: > 120 µM (not active)
[14]
  EC50: 5.91 µM (active)
[15]
  IC50: 23.2 µM (active)
Genome polyprotein
  IC50: > 100 µM (active)
[16]
  AC50: 5.57 µM (active)

## Cc1ccc(S(=O)(=O)Nc2ccc3c4c(cccc24)CC3)c(C)c1
[17]
  AC50: 0.567 µM (active)

## C(=Cc1nc2ccccc2o1)c1ccc2c(c1)OCO2
HEK293
  AC50: 2.91 µM (active)
Cells [18]
  IC50: > 67.6 µM (inactive)
[19]
  IC50: > 0.0927 µM (active)

## COCCOCCSc1nnc(-c2ccccc2)o1
[20]
  AC50: > 52 µM (inactive)

## C(=Nn1cnnc1)c1ccc2c(c1)CCC2
HeLa
  AC50: 28.2 µM (active)

## CNC1=CC(=O)c2ccccc2C1=O
[21]
  AC50: > 70 µM (inactive)
[22]
  AC50: 62.6 µM (active)
[23]
  AC50: 52.9 µM (active)
[24]
  AC50: 11.3 µM (active)
[25]
  AC50: 17.2 µM (active)

## COc1ccc(NC(=O)c2cc([N+](=O)[O-])ccc2/N=C2\CN(C)CCN2C)cc1
[26]
  IC50: 0.037 µM (active)
[27]
  IC50: 0.04 µM (active)

## O=C(Nc1nc(-c2ccccn2)cs1)c1ccc(S(=O)(=O)N2CCOCC2)cc1
[28]
  AC50: 41.1 µM (active)

## CCCN1[C@@H]2Cn3c(ccc(/C=C/c4ccccc4)c3=O)[C@H]1[C@@H](C(=O)NCc1ccccn1)[C@@H]2CO
[29]
  AC50: 8.95 µM (active)

## CS(=O)(=O)N(CC(=O)N1CCc2ccccc21)c1cc(C(F)(F)F)ccc1Cl
[30]
  EC50: 10 µM (inconclusive)

## COc1ccc(C#Cc2cccc(-c3nc(C(=O)NCc4ccc5c(c4)OCO5)cc4c3[C@H](CCO)N([S+]([O-])C(C)(C)C)C4)c2)cc1OC (some centres not stated)
[31]
  AC50: 0.844 µM (active)

## CCCCOc1ccc(CC(=O)N(C)O)cc1
[32]
  IC50: 15 µM (inactive)
